Test results taken from patent publication US8013176B2, “Paricalcitol purification” (Alphora Research Inc., priority 2008, dated 2011).

Key:
[1] = Accelerated storage stability studies, purity by HPLC; type: physicochemical
Protocol: Samples “a” were placed in glass bottles and sealed in a Marvel seal bag under an argon head space, all air having been removed. These were stored at a temperature of 40±2° C. and relative humidity of 75±2%. Samples “b” were similarly packaged and sealed under argon headspace, but stored at 25±2° C. and 60±5% relative humidity. Samples “c” were similarly packaged and sealed under argon headspace, but stored at 5±3° C. Samples “e”, comparative standards, were similarly packaged and sealed under argon headspace, but stored at −20±5° C.
Samples “d” and “f” were placed in glass bottles, but without a marvel seal bag, and stored under air headspace −20±5° C. (samples “d”) and 40±2° C. and relative humidity of 75±2% (samples “f”).
Samples stored at elevated or reduced temperatures were brought to room temperature just prior to sample preparation.
Purity determinations were conducted by High Performance Liquid Chromatography (HPLC), using a Waters Sunfire C18 HPLC Column, 250 by 4.6 mm, with a quaternary or binary HPLC pump, a variable wavelength or photo diode array UV/visible detector set to 252 nm, and an autosampler. Water (degassed) and acetonitrile (degassed) were used as the mobile phase. The column temperature was 25° C., the flow rate 2.0 mL/min with an injection volume of 100 μL and a run time of 60 minutes.

[2] = ICH test protocol storage stability; type: physicochemical; details: argon headspace, 6 months

For C[C@H](/C=C/[C@H](C)C(C)(C)O)[C@H]1CC[C@H]2/C(=C/C=C3C[C@@H](O)C[C@H](O)C3)CCC[C@]12C [Paricalcitol, 1α,25-dihydroxy-19-nor-vitamin D2], the “change in purity on storage” value ([1]; air headspace, 1 month, 40±2° C., 75%±2% relative humidity, paricalcitol of at least 99.9% purity) was “no reduction in purity”, the “change in purity on storage” value ([1]; argon headspace, 5 months, 40±2° C., 75±2% relative humidity) was “no reduction in purity” and the purity after storage ([1]; samples a: argon headspace, 40±2° C., 75±2% relative humidity, 1 month) was 99.9%. The purity after storage ([1]; samples a: argon headspace, 40±2° C., 75±2% relative humidity, 5 months) was 99.9%, the purity after storage ([1]; samples b: argon headspace, 25±2° C., 60±5% relative humidity, 1 month) was 99.9% and the purity after storage ([1]; samples b: argon headspace, 25±2° C., 60±5% relative humidity, 5 months) was 99.8%. It also gave a purity after storage ([1]; samples c: argon headspace, 5±3° C., 1 month) of 99.9%, a purity after storage ([1]; samples c: argon headspace, 5±3° C., 2 months) of 99.9% and a purity after storage ([1]; samples c: argon headspace, 5±3° C., 5 months) of 99.9%. The purity after storage ([1]; samples d: air headspace, −20±5° C., 1 month) was 99.9%, the purity after storage ([1]; samples d: air headspace, −20±5° C., 5 months) was 99.9% and the purity after storage ([1]; samples e: argon headspace, −20±5° C., 1 month) was 99.9%. It also gave a purity after storage ([1]; samples e: argon headspace, −20±5° C., 2 months) of 99.9%, a purity after storage ([1]; samples e: argon headspace, −20±5° C., 5 months) of 99.9% and a purity after storage ([1]; samples f: air headspace, 40±2° C., 75±2% relative humidity, 1 month) of 99.9%. The “change in purity on storage” value ([2]; 5±3° C.) was “no reduction in purity” and the “change in purity on storage” value ([2]; −20±5° C.) was “no reduction in purity”.
